# Assay results reported in patent publication US12509451B2, “Heteroaryl amide inhibitors of CD38” (NAPA THERAPEUTICS LTD., priority 2020, dated 2025).
# Experiments:
# [1] = molecular target: T1, CD38 (Mus musculus, UniProt P56528); experiment: In vivo efficacy against CD38 in aged mice, BID for 5 days, liver NAD+ metabolites; conditions: 3 hr post-dosing
# T1 construct: aged mice (male C57BL6/J, 22 months old) were fasted for 4 hr; from tissue; host or cells: C57BL6/J mice (aged, DIO obese or LPS-challenged); liver, spleen, plasma
# T1 sequence (P56528 1-304): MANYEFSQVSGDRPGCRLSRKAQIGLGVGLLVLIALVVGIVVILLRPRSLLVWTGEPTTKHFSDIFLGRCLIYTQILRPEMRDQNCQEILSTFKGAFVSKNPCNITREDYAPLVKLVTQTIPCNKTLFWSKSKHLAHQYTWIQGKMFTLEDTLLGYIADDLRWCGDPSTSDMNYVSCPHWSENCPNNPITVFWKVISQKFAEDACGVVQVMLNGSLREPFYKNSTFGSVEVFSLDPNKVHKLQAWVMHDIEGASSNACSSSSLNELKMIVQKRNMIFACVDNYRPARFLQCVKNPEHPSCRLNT
# Procedure: The in vivo efficacy of Compound 32 against the human CD38 enzyme was tested in aged mice after oral administration and determined by mass spec (MS) analysis of NAD+ metabolites levels in liver tissue. The two main CD38 substrates, NAD+ and NMN, and the 2 main byproducts of the CD38 enzymatic reaction, NAM and ADPR, were measured.
# Compound 32 was administered to aged mice (male DIO C57BL6/J, 19-22 months old) via oral gavage at a concentration of 3 mg/kg and 10 mg/kg BID for 5 days. At day 5, mice were humanely euthanized for liver tissue harvesting 3 hr post-dosing. A vehicle control (DMSO: Solutol HS 15: 80% Captisol (20% in water)(5:15:80 v/v)) was included to assess baseline NAD+ metabolites levels.
# (§1) The procedure for tissue sample preparation and UPLC-MS/MS methods were adapted from Trammell et al. (2013) Compu. Struct. Biotechnol. J. […] (https://www.ncbi.nlm.nih.gov/pmc/articles/PMC3962138/). Frozen liver tissue was pulverized and resuspended in the extraction buffer (3:1 ethanol:10 mM aq. HEPES, pH 7.1). The samples were vortexed, sonicated briefly in a bath sonicator, and shaken at 55° C. for 3 min at 1,200 rpm. Samples were then centrifuged at 16,000×g for 10 min at 4° C., and the supernatant was dried by speedvac. The dried pellet was resuspended in 97% 10 mM ammonium acetate/3% acetonitrile, centrifuged at 16,000×g for 10 min at 4° C. and 2 μL was injected for LCMS analysis.
# (§2) The UPLC-MS/MS analysis to measure NAD+ metabolites was performed using a Vanquish UHPLC system and a Q Exactive Orbitrap mass spectrometer with H-ESI ion source both from Thermo Scientific. UPLC separation was performed on a Hypercarb (2.1×100 mm, 5 μm particle size, Thermo) column following the method described in Trammell et al. (2013). Acquisition was carried out in positive ion, Parallel Reaction Monitoring (PRM) mode and targeted […] (t-SIM). The Thermo Xcalibur QualBrowser system (version 4.2.47) and Freestyle (version 1.8.51.0) softwares was used for the data processing. For relative fold change, peak areas were normalized with respective internal standards, normalized to weight of the tissue sample used, and calculated as fold change relative at 0 h timepoint/vehicle group.
# The in vivo efficacy of Compound 39 against the human CD38 enzyme was tested in aged mice after oral administration and determined by mass spec analysis of NAD+ metabolites levels in liver tissue. The two main CD38 substrates, NAD+ and NMN, and the 2 main byproducts of the CD38 enzymatic reaction, NAM and ADPR, were measured.
# Compound 39 was administered to aged mice (male DIO C57BL6/J, 19-22 months old) via oral gavage at a concentration of 10 mg/kg BID for 5 days. At day 5, mice were humanely euthanized for liver tissue harvesting 3 hr post-dosing. A vehicle control (DMSO: Solutol HS 15: 80% Captisol (20% in water)(5:15:80 v/v)) was included to assess baseline NAD+ metabolites levels.
# [2] = molecular target: T1, CD38; experiment: In vivo efficacy against CD38 in obese mice, chronic oral administration 49 days, liver NAD+ metabolites; conditions: 10 mg/kg BID oral, 4 hr post-dosing
# Procedure: The in vivo efficacy of Compound 32 against the human CD38 enzyme was tested in obese mice after oral administration and determined by mass spec (MS) analysis of NAD+ metabolites levels in liver tissue. The two main CD38 substrates, NAD+ and NMN, and the 2 main byproducts of the CD38 enzymatic reaction, NAM and ADPR, were measured.
# Obese mice (male DIO C57BL6/J, 65 weeks old) treated for 49 days with compound 32 via oral gavage at a concentration of 10 mg/kg BID. On day 49, mice were humanely euthanized for liver tissue harvesting at 4 hr post-dosing. A vehicle control (1% Methylcellulose) was included to assess baseline NAD+ metabolites levels.
# as §1, §2
# The in vivo efficacy of Compound 39 against the human CD38 enzyme was tested in obese mice after oral administration and determined by mass spec analysis of NAD+ metabolites levels in liver tissue. The two main CD38 substrates, NAD+ and NMN, and the 2 main byproducts of the CD38 enzymatic reaction, NAM and ADPR, were measured.
# Obese mice (male DIO C57BL6/J, 65 weeks old) treated for 49 days with compound 39 via oral gavage at a concentration of 10 mg/kg BID. On day 49, mice were humanely euthanized for liver tissue harvesting at 4 hr post-dosing. A vehicle control (1% Methylcellulose) was included to assess baseline NAD+ metabolites levels.
compound,measurement,setting,value
"O=C(Nc1ccnc(C(F)(F)F)c1)c1cc(OC2CC2)cc(-n2ccnc2)n1 [Compound 32, 4-cyclopropoxy-6-(1H-imidazol-1-yl)-N-(2-(trifluoromethyl)pyridin-4-yl)picolinamide]",ADPR levels in liver,[1]; 3 mg/kg and 10 mg/kg BID oral,decrease
same,NAD+ levels in liver,[1]; 3 mg/kg and 10 mg/kg BID oral,significantly increase
same,NAM levels in liver,[1]; 3 mg/kg and 10 mg/kg BID oral,decrease
same,NMN levels in liver,[1]; 3 mg/kg and 10 mg/kg BID oral,significantly increase
same,ADPR levels in liver,[2],significantly decrease
same,NAM levels in liver,[2],significantly decrease
"COCCOc1cc(C(=O)Nc2ccnc(C(F)(F)F)c2)nc(-n2ccnc2)n1 [Compound 39, 2-(1H-imidazol-1-yl)-6-(2-methoxyethoxy)-N-(2-(trifluoromethyl)pyridin-4-yl)pyrimidine-4-carboxamide]",ADPR levels in liver,[1]; 10 mg/kg BID oral,decrease
same,NAD+ levels in liver,[1]; 10 mg/kg BID oral,increase
same,NAM levels in liver,[1]; 10 mg/kg BID oral,decrease
same,ADPR levels in liver,[2],decrease
same,NAD+ levels in liver,[2],significantly increase
same,NAM levels in liver,[2],decrease
same,NMN levels in liver,[2],significantly increase
